Measured values from patent US5428038A, “Benzopyranones, a method for producing them and uses therefor” (Dr. Willmar Schwabe GmbH & Co., priority 1991, dated 1995).

Columns and labels:
[1] = system: NMDA-induced death; test: NMDA test (25 mg/kg i.v.), prevention of NMDA-induced death (neuroprotective efficacy); format: in vivo, male NMRI mice; conditions: Mus musculus, po, NMDA 25 mg/kg i.v.; for ED50: 1 h, dose protecting 50% of animals against NMDA-induced death one hour after application; for responders at 100 mg/kg: 100 mg/kg p.o. 1 h before test; for responders at 25 mg/kg: 25 mg/kg p.o. 1 h before test; for responders at 5 mg/kg: 5 mg/kg p.o. 1 h before test
Procedure: In order to determine the neuroprotective and anticonvulsive activity of the compounds in accordance with the invention of the general formula I, two slightly different methods were employed as follows: […]
1. In order to determine the neuroprotective efficacy NMDA at a rate of 25 mg/kg/10 ml was administered intravenously to male NMRI mice with a body weight of 20 to 25 g. As a consequence of this application the animals suffer clonic and partly tonic convulsions, which lead to death. As a criterion for the efficacy of the investigated compounds prevention of death is used.
All animals used in the investigations had free access to food and water prior to the experiments. The test and reference substances were all administered as a suspension in 0.2% agar or water, partly by the intermediary of solution promoters such as for instance PEG-400, perorally using an esophageal probe. Control animals received the same volumes of the solvent with optional solution promoters. One hour after the application of the substance NMDA was administered intravenously and the animals observed for the occurrence of convulsions.
In table 1 the results of the tests (NMDA 25 mg i.v.) performed in accordance with method 1 are compiled with dosages of 5-100 mg of the compounds in accordance with the invention per kg of body weight as compared with known NMDA-antagonists. As a percentage efficacy the percentage of surviving animals is used.
The determination of the ED50 values was performed in accordance with the method described in Lichtfield and Wilcoxon, J. Pharmacol. exp. Therapeut. 96, 99 (1949) in each case with 4 to 5 groups of 10 animals per dosage rate.

[2] = system: ovalbumin-induced anaphylactic paw edema; test: Passive rat paw anaphylaxy (inhibition of edema volume; antiallergic and anti-inflammatory); format: in vivo, male Sprague-Dawley rats; conditions: for inhibition in vivo at 25 mg/kg: 25 mg/kg p.o. 1 h before test; for inhibition in vivo at 30 mg/kg: 30 mg/kg p.o. 1 h before test
Procedure: The determination of the antiallergic and anti-inflammatory properties of the compounds in accordance with the invention was using a passive rat paw anaphylaxy model.
Male Sprague-Dawley rats were utilized for all tests. The animals were kept under standardized environmental conditions with free access to food and water. For sensitization to the antigen 100 μl of a mouse antiserum to ovalbumin was injected sublplantarly into the left rear paw. […] The opposite paw was for control injected subplantarly only with 100 μl of the solvent (sterile physiological NaCl solution). Overnight the investigated animals were deprived of food but had water ad lib.
Per group in all tests between 6 and 8 animals were used. One hour later the anaphylactic reaction was caused by the intravenous injection of 10 mg/10 ml/kg ovalbumin in physiological NaCl solution. […] The edema volume was calculated from the difference between the values of the two paws. The antiallergic action is in this case expressed as a percentage inhibition of the edema volume of the animals in the test group as compared with control groups undergoing parallel investigation. […] The determination of the ED50 values was performed by linear regression after log transformation of the administered doses, at least three dosage rates being employed.

[3] = read-out: Protective action (percentage of surviving animals)
[4] = Rattus norvegicus, po, read-out: Protective action (percentage inhibition of edema volume)
[5] = Rattus norvegicus, po, p.o. 1 h before test, linear regression after log transformation of doses

With `COc1cc2oc(=O)ccc2cc1OCC(O)CN1CCC(C(O)(c2ccc(F)cc2)c2ccc(F)cc2)CC1` (racemic) [Example 25, (±)-6-{3-[4-(bis(4-fluorophenyl)hydroxymethyl)-1-piperidinyl]-2-hydroxypropoxy}-7-methoxy-2H-1-benzopyran-2-one] the ED50 [1] was 77 mg/kg, the responders at 100 mg/kg [1, 3] was 100% and the inhibition in vivo at 25 mg/kg [2, 4] was 43%.

For `COc1cc2ccc(=O)oc2cc1OCCCN1CCN(C(c2ccc(F)cc2)c2ccc(F)cc2)CC1` [Example 8, 7-{3-[4-(bis(4-fluorophenyl)methyl)-1-piperazinyl]propoxy}-6-methoxy-2H-1-benzopyran-2-one], the responders at 100 mg/kg [1, 3] was 62.5% and the inhibition in vivo at 25 mg/kg [2, 4] was 35%.

`CC(C)Oc1cc2ccc(=O)oc2cc1OCCCN1CCC(c2ccccc2)CC1` [Example 12, 6-(1-methylethoxy)-7-[3-(4-phenyl-1-piperidinyl)propoxy]-2H-1-benzopyran-2-one] showed a responders at 25 mg/kg [1, 3] of 62.5% and an inhibition in vivo at 25 mg/kg [2, 4] of 12%.

For `COc1cc2ccc(=O)oc2cc1OCCCN1CCC(C(O)(c2ccc(F)cc2)c2ccc(F)cc2)CC1` [Example 14, 7-{3-[4-(bis(4-fluorophenyl)hydroxymethyl)-1-piperidinyl]propoxy}-6-methoxy-2H-1-benzopyran-2-one], the responders at 25 mg/kg [1, 3] was 37.5%, the “Action remains for a period with full effect” value ([2]; 25 mg/kg p.o.) was 24 h and the inhibition in vivo at 25 mg/kg [2, 4] was 81%. For the same compound, the ED50 [2, 5] was 2.4 mg/kg.

Compound `COc1cc2oc(=O)ccc2cc1OCCCN1CCC(=C(c2ccc(F)cc2)c2ccc(F)cc2)CC1` [Example 15, 6-{3-[4-(bis(4-fluorophenyl)methylene)-1-piperidinyl]propoxy}-7-methoxy-2H-1-benzopyran-2-one] has a responders at 25 mg/kg [1, 3] of 50% and an inhibition in vivo at 25 mg/kg [2, 4] of 60%.

With `COc1cc2oc(=O)ccc2cc1OCCCN1CCC(C(c2ccccc2)c2ccccc2)CC1` [Example 16, 6-{3-[4-(diphenylmethyl)-1-piperidinyl]propoxy}-7-methoxy-2H-1-benzopyran-2-one] the responders at 100 mg/kg [1, 3] was 75% and the inhibition in vivo at 25 mg/kg [2, 4] was 60%.

For `COc1cc2ccc(=O)oc2cc1OCCCN1CCC(C(O)(c2ccccc2)c2ccccc2)CC1` [Example 17, 7-{3-[4-(diphenylhydroxymethyl)-1-piperidinyl]-propoxy}-6-methoxy-2H-1-benzopyran-2-one], the responders at 100 mg/kg [1, 3] was 37.5% and the inhibition in vivo at 25 mg/kg [2, 4] was 83%.

Compound `COc1cc2oc(=O)cc(C)c2cc1OCCCN1CCN(c2ccccc2)CC1` [Example 26, 7-methoxy-4-methyl-6-[3-(4-phenyl-1-piperazinyl)propoxy]-2H-1-benzopyran-2-one] has a responders at 25 mg/kg [1, 3] of 62.5% and an inhibition in vivo at 25 mg/kg [2, 4] of 66%.

Work on `COc1cc2oc(=O)cc(C)c2cc1OCCCN1CCC(c2ccccc2)CC1` [Example 27, 7-methoxy-4-methyl-6-[3-(4-phenyl-1-piperidinyl)propoxy]-2H-1-benzopyran-2-one] yielded a responders at 25 mg/kg [1, 3] of 50% and an inhibition in vivo at 25 mg/kg [2, 4] of 40%.

With `COc1cc2oc(=O)c(C)c(C)c2cc1OCCCN1CCN(c2ccccc2)CC1` [Example 28, 7-methoxy-3,4-dimethyl-6-[3-(4-phenyl-1-piperazinyl)propoxy]-2H-1-benzopyran-2-one] the responders at 25 mg/kg [1, 3] was 87.5% and the inhibition in vivo at 25 mg/kg [2, 4] was 72%.

In the case of `COc1cc2oc(=O)cc(-c3ccccc3)c2cc1OCCCN1CCN(c2ccccc2)CC1` [Example 39, 7-methoxy-4-phenyl-6-[3-(4-phenyl-1-piperazinyl)propoxy]-2H-1-benzopyran-2-one], the responders at 25 mg/kg [1, 3] is reported as 62.5% and the inhibition in vivo at 25 mg/kg [2, 4] is reported as 26%.

`COc1cc2oc(=O)cc(-c3ccccc3)c2cc1OCCCN1CCC(c2ccccc2)CC1` [Example 40, 7-methoxy-4-phenyl-6-[3-(4-phenyl-1-piperidinyl)propoxy]-2H-1-benzopyran-2-one] was tested, and the responders at 100 mg/kg [1, 3] was 37.5% and the inhibition in vivo at 25 mg/kg [2, 4] was 27%.

With `COc1cc2oc(=O)c3c(c2cc1OCCCN1CCN(c2ccccc2C)CC1)CCC3` [Example 59, 2,3-dihydro-7-methoxy-8-{3-[4-(2-methylphenyl)-1-piperazinyl]propoxy}cyclopenta[c][1]benzopyran-4(1H)-one] the ED50 [1] was 1.1 mg/kg and the responders at 5 mg/kg [1, 3] was 100%.

`COc1cc2oc(=O)c3c(c2cc1OCCCN1CCN(c2ccccc2O)CC1)CCC3` [Example 60, 2,3-dihydro-8-{3-[4-(2-hydroxyphenyl)-1-piperazinyl]propoxy}-7-methoxy-cyclopenta[c][1]benzopyran-4(1H)-one] was tested, and the responders at 5 mg/kg [1, 3] was 62.5%.

`COc1cc2oc(=O)c3c(c2cc1OCCCN1CCN(c2ccc([N+](=O)[O-])cc2)CC1)CCC3` [Example 61, 2,3-dihydro-7-methoxy-8-{3-[4-(4-nitrophenyl)-1-piperazinyl]propoxy}cyclopenta[c][1]benzopyran-4(1H)-one] gave a responders at 100 mg/kg [1, 3] of 25%.

Compound `COc1cc2oc(=O)c3c(c2cc1OCCCN1CCN(c2ccccn2)CC1)CCC3` [Example 62, 2,3-dihydro-7-methoxy-8-{3-[4-(2-pyridinyl)-1-piperazinyl]propoxy}cyclopenta[c][1]benzopyran-4(1H)-one] has a responders at 25 mg/kg [1, 3] of 87.5%.

For `COc1cc2oc(=O)c3c(c2cc1OCCCN1CCN(c2ncccn2)CC1)CCC3` [Example 63, 2,3-dihydro-7-methoxy-8-{3-[4-(2-pyrimidinyl)-1-piperazinyl]propoxy}cyclopenta[c][1]benzopyran-4(1H)-one], the responders at 25 mg/kg [1, 3] was 12.5%.

With `COc1cc2oc(=O)c3c(c2cc1OCCCN1CCC(Cc2ccccc2)CC1)CCC3` [Example 64] the responders at 25 mg/kg [1, 3] was 75%.

For `COc1cc2oc(=O)c3c(c2cc1OCCCN1CCC(C(O)(c2ccc(F)cc2)c2ccc(F)cc2)CC1)CCC3` [Example 65, 8-{3-[4-(bis(4-fluorophenyl)hydroxymethyl)-1-piperidinyl]propoxy}-2,3-dihydro-7-methoxy-cyclopenta[c][1]benzopyran-4(1H)-one], the responders at 100 mg/kg [1, 3] was 12.5%.

`COc1cc2oc(=O)c3c(c2cc1OCCCN1CCN(c2ccccc2F)CC1)CCC3` [Example 66, 8-{3-[4-(2-fluorophenyl)-1-piperazinyl]propoxy}-2,3-dihydro-7-methoxy-cyclopenta[c][1]benzopyran-4(1H)-one] gave a responders at 5 mg/kg [1, 3] of 100%.

For `COc1ccc(CCN2CCC(Nc3nc4ccccc4n3Cc3ccc(F)cc3)CC2)cc1` [astemizole, reference compound], the inhibition in vivo at 10 mg/kg ([2]; Rattus norvegicus, po, 10 mg/kg p.o. 1 h before test, read-out: Protective action (percentage inhibition of edema volume)) was 70% and the ED50 [2, 5] was 3.1 mg/kg.

With `O=C(O)c1cc(=O)c2c(OCC(O)COc3cccc4oc(C(=O)O)cc(=O)c34)cccc2o1` [cromoglycate, reference compound] the inhibition in vivo at 2.25 mg/kg ([2]; Rattus norvegicus, 2.25 mg/kg, intravenous immediately prior to test, read-out: Protective action (percentage inhibition of edema volume)) was 58%, the ED50 ([2]; Rattus norvegicus, intravenous treatment immediately prior to test (footnote), head says p.o.) was 1.1 mg/kg and the oral effectiveness ([2]; oral) was “orally not effective”.

`CN(C)CCOC(c1ccccc1)c1ccccc1` [diphenhydramine, reference compound] showed an inhibition in vivo at 100 mg/kg ([2]; Rattus norvegicus, po, 100 mg/kg p.o. 1 h before test, read-out: Protective action (percentage inhibition of edema volume)) of 54% and an ED50 [2, 5] of 73 mg/kg.

`CNC1(c2ccccc2Cl)CCCCC1=O` (stereo not shown) [ketamine, reference compound] was tested, and the responders at 20 mg/kg ([1]; 20 mg/kg p.o. 1 h before test, read-out: Protective action (percentage of surviving animals)) was 0%.

For `CN1CCC(=C2c3ccccc3CC(=O)c3sccc32)CC1` [ketotifen, reference compound], the inhibition in vivo at 30 mg/kg [2, 4] was 77% and the ED50 [2, 5] was 5.6 mg/kg.

`O=c1[nH]c2ccccc2n1CCCN1CCN(C(c2ccccc2)c2ccccc2)CC1` [oxatomide, reference compound] gave an inhibition in vivo at 30 mg/kg [2, 4] of 75% and an ED50 [2, 5] of 7.3 mg/kg.

With `Cc1c(C)c2ccc(OCCCN3CCN(Cc4ccc(Cl)cc4)CC3)cc2oc1=O` [picumast, reference compound] the inhibition in vivo at 25 mg/kg [2, 4] was -21%.
